{"source": "paper PMC7078479", "about": "“Sulfamoyl Heteroarylcarboxylic Acids as Promising Metallo-β-Lactamase Inhibitors for Controlling Bacterial Carbapenem Resistance” (mBio, 2020)", "system": "TLA-3", "experiment": "Serine β-lactamase inhibition, nitrocefin hydrolysis by TLA-3", "format": "biochemical", "conditions": "nitrocefin 100 μM", "procedure": "The serine–β-lactamases (1 nM) TLA-3, CMY-2, and OXA-48 were mixed with SFC in 100 mM phosphate buffer (pH 7.0) and incubated for 5 min at 30°C. Nitrocefin was added to reach a concentration of 100 μM, and the velocity of nitrocefin hydrolysis was monitored at 482 nm. Avibactam (MedKoo Bioscience, Morrisville, NC) was used as an inhibitor for serine–β-lactamases. The inhibitory effect of SFC against ACE was evaluated using ACE Kit-WST (Dojindo Laboratories, Kumamoto, Japan). The residual ACE activity was calculated as described in the manufacturer’s protocol as follows: [1 − (Acontrol − Asample)/(Acontrol − Abackground)] × 100. EDTA solution (Nippon Gene, Tokyo, Japan) was used as an ACE inhibitor.", "data": [{"compound": "Cc1oc(C)c(S(N)(=O)=O)c1C(=O)O", "note": "[SFC, 2,5-dimethyl-4-sulfamoylfuran-3-carboxylic acid]", "values": [{"measurement": "Inhibitory effect against TLA-3 (class A)", "value": "nonexistent or insufficient"}]}]}
